Measured values as given in paper PMC12015663 (Cancer Research Communications, 2025).

Experiments:
ARAF = biological target: T1, ARAF (Homo sapiens, UniProt P10398); experiment: Time-resolved fluorescence energy transfer binding assay (KINETICfinder); conditions: partial length active recombinant human ARAF at 5 nmol/L; 60 minutes, room temperature; singlicate
T1 sequence (P10398 310-570 limits assumed): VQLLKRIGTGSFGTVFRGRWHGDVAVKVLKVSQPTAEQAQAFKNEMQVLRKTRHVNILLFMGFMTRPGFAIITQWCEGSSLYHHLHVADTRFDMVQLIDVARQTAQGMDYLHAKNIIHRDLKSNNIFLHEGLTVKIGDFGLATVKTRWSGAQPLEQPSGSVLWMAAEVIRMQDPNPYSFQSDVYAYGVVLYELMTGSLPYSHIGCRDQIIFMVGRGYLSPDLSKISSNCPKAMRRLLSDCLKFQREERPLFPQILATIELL
Procedure: Compounds were mixed with assay buffer (50 mmol/L HEPES pH 7.5, 1 mmol/L Ethyleneglycol-bis-(aminoethyl-ether)-N,N,N',N'-tetraacetic acid, 0.01% Brij-35, 10 mmol/L MgCl2, and 2 mmol/L Dithiothreitol), and 5 μL of this solution was transferred to the assay plate. The final concentration of DMSO in the assay was 1%. Hundred percent DMSO was used as a high and low control. Assays were run in singlicate with a reference compound included in each assay to evaluate reproducibility and assay quality.
Wells containing the fluorescent probe, antibody, and target (ARAF) were used as the high reaction control (total binding) and wells containing the probe and antibody were used as the low reaction control (nonspecific binding). […] Next, the substrate antibody solution was added, and the reaction was incubated for 60 minutes at room temperature. Percentage inhibition of each well was calculated using the following formula: % inhibition = 100 − [compound emission ratio (ER) − low control ER/high control ER − low control ER] × 100. Results were fitted to a concentration response curve with a variable slope and constraints of 0 and 100 for bottom and top, respectively, to generate the IC50 values.

[1] = test system: AGK::BRAF fusion melanoma PDX; experiment: Antitumor efficacy in vivo, AGK::BRAF fusion melanoma PDX; set-up: species or system mice; conditions: for effect on tumor growth: NOD/SCID mice
Procedure: Female mice with tumors harboring an AGK::BRAF fusion melanoma PDX or NF1-LOF ERMS PDX were established by inoculating NOD or NOG/SCID mice, respectively, with tumor fragments harvested from stock mice. Mice with tumors harboring an NF1-LOF mutation MeWo xenograft were established in 10 mice per treatment group by inoculating 7- to 9-week-old female BALB/c nude mice on the right flank with tumor cells (5 × 10^6) in 0.1 mL of PBS mixed with Matrigel (1:1) for tumor development. For the AGK::BRAF fusion melanoma PDX model, 7- to 8-week-old mice were inoculated subcutaneously on the right flank and randomized into eight mice per treatment group. For the NF1-LOF ERMS PDX model, tumor fragments were harvested from stock animals and implanted unilaterally on the left flank of 6- to 8-week-old mice and then the mice were randomized into 10 mice per treatment group. After tumor cell inoculation, the animals were checked daily for morbidity and mortality. All experiments were performed once.
Purified water (type II or high-performance liquid chromatography grade) was used as aqueous suspension vehicle and control for in vivo efficacy experiments. […] Tovorafenib was freshly prepared every day prior to dosing.
Randomization was performed based on the “Matched distribution” method (StudyDirector software, version 3.1.399.19) with the date of randomization denoted as day 0. Tumor volumes and body weight were measured twice per week after randomization. Tumor volume was measured in two dimensions (2D) using a caliper, and the volume was expressed in mm^3 using the formula V = (L × W × W)/2, in which V was tumor volume, L was tumor length (the longest tumor dimension), and W was tumor width (the longest tumor dimension perpendicular to L). Percentage change in tumor volume and body weight was calculated using StudyDirector software (version 3.1.399.19).
(§1) The mice in the control vehicle group were dosed either daily or twice daily.

PK parameters in mouse = assay type: in vivo; conditions: Mouse PK (at efficacious doses), 12 – 25 mg/kg, QD
Procedure: as §1

MeWo = experiment: CellTiter-Glo cell viability assay, MeWo
pERK in MeWo (NF1-LOF) = experiment: pERK modulation in vitro, MSD ELISA, MeWo; conditions: Homo sapiens, 1 h, read-out: pERK EC50
[2] = test system: pERK in NCI-H1838 (NF1-LOF); experiment: pERK modulation in vitro, MSD ELISA, NCI-H1838

C[C@@H](NC(=O)c1ncnc(N)c1Cl)c1ncc(C(=O)Nc2cc(C(F)(F)F)c(Cl)cn2)s1 [Tovorafenib]
IC50 (ARAF): 0.055 µM | day on which tumors started to regrow ([1]; 17.5 mg/kg daily, approximately 2 weeks after the last dosage): 28 days | effect on tumor growth ([1]; 17.5 mg/kg orally daily for 14 days): tumor regression was observed | effect on tumor growth ([1]; 25 mg/kg orally daily for 14 days): tumor regression was observed | tolerability ([1]; 25 and 17.5 mg/kg orally daily, both dose levels): well tolerated | body weight loss ([1]; 25 and 17.5 mg/kg orally daily, throughout the treatment): no significant body weight loss | time tumor regression was sustained after the last dose ([1]; both efficacy studies (25 and 17.5 mg/kg), last dose on day 14): at least 7 days | Cmin (PK parameters in mouse): 596 to 1265 ng/mL | AUC(0-t) (PK parameters in mouse; plasma, oral, read-out: Daily AUC0-24): 50100 to 96600 ng·h/mL | anti-proliferative activity (MeWo; CTG 72 hours): little activity | EC50 (MeWo; Homo sapiens, 72 h, read-out: Proliferation EC50): 7.5 µM | EC50 (pERK in MeWo (NF1-LOF)): 8.3 µM | EC50 ([2]; Homo sapiens, NCI-H1838, 1 h, read-out: pERK EC50): > 10 µM | extent of the pERK increase ([2]; NCI-H1838, 1 hour after treatment, compared across type II RAF inhibitors): higher extent | pERK increase across the full concentration range ([2]; NCI-H1838, 6 hours after treatment): lack of increase in pERK
